According to paper PMC7997574, “Lead Optimization of Benzoxazolone Carboxamides as Orally Bioavailable and CNS Penetrant Acid Ceramidase Inhibitors” (Journal of Medicinal Chemistry, 2020):

What was measured:
[1] = target: T1, acid sphingomyelinase (ASM) (Homo sapiens, UniProt P17405); assay: In vitro hASM assay; format: biochemical; settings: 1 and 10 μM
T1 construct: 1.3 nM purified human full-length ASM enzyme (purified in house); made in house
T1 sequence (P17405 47-631): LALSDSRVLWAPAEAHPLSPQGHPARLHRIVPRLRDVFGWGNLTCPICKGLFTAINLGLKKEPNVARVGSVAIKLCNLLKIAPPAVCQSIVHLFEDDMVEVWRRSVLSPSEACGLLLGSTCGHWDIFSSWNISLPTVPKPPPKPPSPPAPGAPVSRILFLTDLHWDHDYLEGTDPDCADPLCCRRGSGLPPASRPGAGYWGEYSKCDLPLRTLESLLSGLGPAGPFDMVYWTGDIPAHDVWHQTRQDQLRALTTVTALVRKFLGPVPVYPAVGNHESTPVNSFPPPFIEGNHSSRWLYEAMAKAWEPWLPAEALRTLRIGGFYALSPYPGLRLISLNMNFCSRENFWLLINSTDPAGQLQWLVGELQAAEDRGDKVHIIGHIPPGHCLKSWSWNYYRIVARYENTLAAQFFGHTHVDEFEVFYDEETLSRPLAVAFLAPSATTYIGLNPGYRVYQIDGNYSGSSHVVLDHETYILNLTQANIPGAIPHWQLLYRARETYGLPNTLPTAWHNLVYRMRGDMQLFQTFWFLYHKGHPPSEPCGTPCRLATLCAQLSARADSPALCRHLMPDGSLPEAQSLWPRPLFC
Protocol: hASM activity measurement was conducted using the fluorogenic substrate 6-hexadecanoylamino-4-methylumbelliferylphosphorylcholine (HMU-PC, Toronto Research Chemicals) at 0.5 μM and 1.3 nM purified human full-length ASM enzyme (purified in house) in a buffer containing 50 mM citrate, 150 mM NaCl, 5 mM ZnCl2, and 0.43 mM Triton X-100 at pH 4.7 in a final volume of 50 μL. The reaction mixtures were incubated for 45 min at rt and stopped by the addition of 150 μL of 1 M glycine at pH 12.5. The formation of the fluorescent product was monitored by a plate reader at excitation/emission wavelengths of 385/450 nm. The average hASM activity was calculated from two independent experiments, each performed in two technical replicates.

[2] = test system: SH-SY5Y cells; assay: Sphingolipid levels in SH-SY5Y cells by LC/MS; format: cell-based, human
Protocol: SH-SY5Y cells were purchased from Sigma Aldrich (Italy) and cultured in Dulbecco’s modified Eagle’s medium (DMEM) containing 10% fetal bovine serum at 37 °C and 5% CO2. Drugs were dissolved in DMSO (10 mM) and diluted in the cell culture medium with reduced serum (1%) for cell treatments.
Lipid extraction and sphingolipid measurements were performed as previously described.[36],[37] Lipids were extracted with a CHCl3/MeOH mixture (2:1, 3 mL) containing internal standards. The organic phase was collected, dried under nitrogen, and dissolved in CHCl3/MeOH (1:3) for LC/MS analyses. Ceramides and sphingosine were analyzed by LC/MS/MS, using a Waters ACQUITY UPLC coupled to a Waters Xevo TQMS and interfaced with an ESI ion source. Separation was performed on a Waters ACQUITY BEH C18 1.7 μm column (2.1 × 50 mm) at 60 °C. A linear gradient of 0.1% formic acid in MeCN/isopropyl alcohol (20:80) as solvent B in 0.1% formic acid in MeCN/H2O (20:80) as solvent A was applied at a flow rate of 0.4 mL min^–1. Detection of sphingolipids was performed in positive-ion mode. Capillary voltage was 3.5 kV, and cone voltage was 25 V. The source temperature and desolvation temperatures were set at 120 and 600 °C, respectively. Desolvation gas and cone gas (N2) flows were 800 and 20 L h^–1, respectively. Ceramides were identified by comparison of their LC retention times and MS/MS fragmentation patterns with those of authentic standards (Avanti Polar Lipids). Multiple Reaction Monitoring (MRM) ion chromatograms were used to quantify myristoyl ceramide (C14:0, m/z: 492.5 > 264.3), palmitoyl ceramide (C16:0, m/z 520.3 > 264.3), stearoyl ceramide (C18:0, m/z: 548.3 > 264.3), lignoceroyl ceramide (C24:0, m/z: 632.3 > 264.3), and nervonoyl ceramide (C24:1 m/z: 630.3 > 264.3) using lauroyl ceramide standard (m/z: 464.5 > 264.3). Detection and analysis were controlled by Waters MassLynx software version 4.1. Sphingosine was identified by comparison of its LC retention times and MS2 fragmentation patterns with those of authentic standards (Avanti Polar Lipids). Extracted ion chromatograms were used to quantify sphingosine standard (d18:1, m/z: 300.5 > 282.5). Detection and analysis were controlled by Waters MassLynx software version 4.1. Calibration curves were prepared for every experiment.

[3] = target: T2, AC (Homo sapiens, UniProt Q13510); assay: EC50 determination in primary fibroblast cells from Krabbe's disease patients; format: cell-based; design: expressed in transfected cells
T2 sequence (Q13510 22-395): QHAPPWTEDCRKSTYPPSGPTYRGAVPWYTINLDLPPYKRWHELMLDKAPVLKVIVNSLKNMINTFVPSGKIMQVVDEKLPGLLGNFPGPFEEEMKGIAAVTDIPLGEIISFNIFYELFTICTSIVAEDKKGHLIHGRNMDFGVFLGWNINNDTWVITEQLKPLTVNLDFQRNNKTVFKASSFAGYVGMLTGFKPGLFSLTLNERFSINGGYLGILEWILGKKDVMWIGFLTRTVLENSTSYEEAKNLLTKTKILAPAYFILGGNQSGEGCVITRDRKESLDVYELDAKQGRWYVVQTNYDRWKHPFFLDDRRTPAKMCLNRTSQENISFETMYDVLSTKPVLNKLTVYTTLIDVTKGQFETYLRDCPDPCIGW
Protocol: Cells were plated in a 6-well plate. After 24 h, cells were treated with 22m at different concentrations for 2 h. Next, cells were washed with PBS, and cell pellets were washed, collected, and stored at −80 °C. Finally, cell pellets were lysed, and hAC activity in cell lysates was analyzed using the same biochemical fluorogenic assay as described for compound IC50 determination. Using this methodology, EC50 was determined to be 0.41 ± 0.1 μM. The EC50 value is a mean of two independent experiments, each performed in two technical replicates.

Q: Which results are given for `CC(C)CNC(=O)n1c(=O)oc2cc(C3CCN(C)CC3)ccc21` [22m, N-Isobutyl-6-(1-methyl-4-piperidyl)-2-oxo-1,3-benzoxazole-3-carboxamide]?
A: effect on activity of ASM [1]: no effect; hexosylceramide (HexCer) (d18:1/16:0) levels [2]: no major variations; sphingomyelin (SM) (d18:1/16:0) levels [2]: no major variations; ceramide levels, Cer (d18:0/16:0) and Cer (d18:1/16:0) ([2]; 3 h of incubation): intracellular accumulation of various ceramide species; sphingosine levels ([2]; 3 h of incubation): decrease in the levels of sphingosine; EC50 ([3]; primary fibroblast cells from Krabbe's disease patients, 2 h incubation): 410 ± 100 nM; EC50 ([3]; primary fibroblast cells of Krabbe's patients, Figure S1): 400 ± 100 nM
